# In article PMC4949444 (Scientific Reports, 2016):
# Tests used:
# N2a cells = assay: Glutamate-induced excitotoxicity in N2a cells (MTT); format: cell-based; settings: 15 mM glutamate 24 h
# Method: Figure 1 VCE-003.2 synthesis and characterization. (a) Schematic representation of VCE-003.2 synthesis. […] The indicated concentrations were tested and results were plotted to obtain the polynomial trend on a logarithmic range. IC50 values are indicated within the graph. […]. HEK293 cells were co-transfected with GAL4-PPARγ and GAL4-luc and incubated with the indicated compound concentrations for 6 hours prior to luciferase activity determination. Results are expressed as the fold induction ± S.D. relative to untreated control. (d) N2a cells were incubated with VCE-003 and VCE-003.2 as indicated during 24 hours and cell viability was determined by the MTT assay. Results are expressed as percentage of cell viability against the negative control (100%). (e) N2a cells were pre-treated with the compounds for 30 min and incubated during 24 h with 15 mM glutamate and cell viability determined by MTT. Results are expressed as percentage of cell viability against the negative control (100%). All experiments are shown as mean ± S.D. from at least three independent experiments. Statistics: *^,#,†p < 0.05, **^,##,††p < 0.01 and ***^,###p < 0.001. […] | Briefly, N2a cells were seeded at a density of 1 × 10^3 cells/well in 96-well plates, treated with increasing concentrations of VCE-003 or VCE-003.2 for 24 hours and cell viability was measured by the MTT method. […]. […]
# [1] = Cysteamine recovery assay (thiol trapping)
# Method: cysteamine to form polar and not extractable adducts.
# Determination of ROS: N2a cells were seeded at 25x 10^3 cells/ml in 96-well plates and incubated with 0.25 ȝM 5-(and-6 )-chloro meth yl-2ƍ,7ƍ-dichlorodihydrofluorescein diacetate acet yl ester (C M-H 2 DCFDA) for 20 minutes at 37°C. Then, the cells were treated with either VCE-003 or VCE-003.2 for 2 hours. Cells exposed to pro-oxidant tert-Butyl h ydroperoxide (TBHP) were used as positive control. H 2 DCFDA oxidation was detected using an Incuc yteTM Live-Cell Imaging S ystem (Hertfordshire, UK).
# Nrf2 transcriptional assay: To study Nrf2 transcriptional activity N2a cells were seeded (105/ml) in 24-well plates and transientl y transfected with the plasmid NQO1-ARE-Luc using Roti©-Fect following the manufacturer’s instructions (Carl Roth, Karlsruhe, German y). After 24 hours, cells were incubated wi th the compounds at the concentrations indicated during 6 hours and the luciferase activit y was determined using an Autolumat LB 953 (EG&G Berthold, Bad Wildbad, Germany). Protein content was determined b y the Bradford method to calculate R LU/Pg of protein and the results were expressed as a fold induction over untreated cells.
# HiB5 cells = assay: HiB5 neural progenitor cell viability (MTT); format: cell-based
# Method: Figure 3 Prosurvival effect of VCE-003.2 in hippocampal neural progenitor HiB5 cells. (a,b) HiB5 cells in proliferative and differentiation conditions respectively were incubated with increasing concentrations of VCE-003.2 and cell viability was assessed using the MTT test after 48 h. (c) Cell viability and ERK1/2 phosphorylation status (activation) was determined in VCE-003.2-treated cells in the absence or presence of GW9662 (5 μM). (d) VCE-003.2 time-dependent regulation of the ERK, Akt and mTORC1 signaling pathways were determined by incubation with anti-phospho-ERK, phospho-Akt and phospho-S6 antibodies. Loading control was performed with α-tubulin antibody. Representative western blots and densitometry quantification of three independent experiments are shown. Values are expressed as means ± S.D. *p < 0.05; **p < 0.01 vs. Vehicle; ^#p < 0.05 vs. VCE-003.2.
# The HiB5 hippocampal progenitor cell line (kindly provided by Prof. Z. Kokaia, Lund Stem Cell Center, Sweden) was grown as described[46] in DMEM supplemented with 2 mM glutamine, 1% penicillin/streptomycin and 10% (v/v) fetal calf serum (FCS; Lonza, Switzerland). HiB5 cell cultures were incubated in 5% CO2 at 33 °C, the proliferation-permissive temperature of the oncogenic tsA58 allele of the SV40 large T antigen. Incubation at 37 °C loss of proliferative capacity and neural differentiation. Cell viability was determined after 24 h using the 3-[4,5-dimethylthiazol-2-yl]-2,5-diphenyltetrazolium bromide (MTT) […]. Immortalized mouse striatal STHdh cells (kindly provided by S. Gines, U. Barcelona, Spain) were cultured as described. Cell were transiently transfected with 10 μg doxycycline-inducible CFP-huntingtin-94Q using Amaxa´s Nucleofector following the instructions of the manufacturer (Lonza). In addition STHdh^Q7/Q7 and STHdh^Q111/Q111 expressing endogenous levels of full-length huntingtin with 7 glutamines or 111 glutamines in the protein N-terminal domain, respectively, were used. […]
# [2] = system: osteoblast-differentiating MSCs; assay: Osteoblast differentiation of human mesenchymal stem cells; settings: osteoblastogenic medium, 14 days of differentiation
# From the text: The Reina Sofia University Hospital Review Board approved this study and the procedures followed were in accordance with the ethical standards of the ethic committee from Hospital Reina Sofía and with the Declaration of Helsinki. Bone marrow donors were recruited by the Haematology Service. All subjects gave their informed consent so that the bone marrow aliquots extracted for clinical purposes could also be used for mesenchymal bone marrow research. […] Adipogenic and osteoblast differentiation was performed as described[22]. Treatment with RZG and VCE-003.2 started at the same time as the differentiation process. […] The images captured with the light microscope were analyzed with the ImageJ Software (NIH; Bethesda, MD, USA).
# Cells were collected at day 14 of differentiation and total RNA was extracted using the High Pure RNA Isolation kit (Roche Diagnostics). The total amount of RNA extracted was quantified using NanoDrop 2000 (Thermo Fisher Scientific Inc). Total RNA (1 μg) was retrotranscribed using the iScriptTM cDNA Synthesis Kit (Bio-Rad; Hercules, CA, USA), and the cDNA generated was analyzed by real-time PCR, using the iQ^TM SYBR Green Supermix (Bio-Rad; Hercules, CA, USA). Real-time PCR to quantify the mRNA of osteoblastic and adipocityc markers was performed using a CFX96 Real-time PCR Detection System (Bio-Rad; Hercules, CA, USA). […]
compound,measurement,setting,value
CCCCCC1=C(NCC)C(=O)C(C/C=C(\C)CCC=C(C)C)=C(O)C1=O [VCE-003.2],prevention of glutamate-induced excitotoxicity,N2a cells,able to prevent excitotoxicity induced by glutamate
same,recovery after treatment with cysteamine (thiol-trapping reactivity),[1],recovered unscathed
same,"cell viability, proliferative conditions","HiB5 cells; HiB5, 50 nM to 50 μM, MTT",not toxic even at the highest concentrations employed
same,cell viability during neuronal differentiation,"HiB5 cells; HiB5, differentiation conditions, increasing concentrations, MTT","exerted a prosurvival activity at lower concentrations, while at high concentrations it was toxic and reduced cell viability"
same,prosurvival action in presence of PPARγ antagonist,HiB5 cells; VCE-003.2 250 nM + GW9662 5 μM,prevented
same,"expression of osteogenic differentiation markers Runx2, SP7, ALP, IBSP",[2],mild and did not inhibit the expression of osteogenic differentiation markers
